ChEMBL document CHEMBL1146813, “Synthesis and antibacterial activity of novel bifunctional macrolides” (2004)
In brackets after ≈: the same amount, converted by molar mass.

Assays:
Type in all cases: functional
[1] = test system: Haemophilus influenzae; experiment: In vitro antibacterial activity against Haemophilus influenzae GYR1435 (fully susceptible strain)
[2] = test system: Staphylococcus aureus; experiment: In vitro antibacterial activity against Staphylococcus aureus 1775 (methicillin-resistant strain(MRSA))
[3] = test system: Staphylococcus aureus; experiment: In vitro antibacterial activity against Staphylococcus aureus NCTC 10649 (erythromycin-susceptible strain)
[4] = test system: Streptococcus pneumoniae; experiment: In vitro antibacterial activity against Streptococcus pneumoniae 5649 (efflux-resistant strain bearing a mef (E) gene)
[5] = test system: Streptococcus pneumoniae; experiment: In vitro antibacterial activity against Streptococcus pneumoniae 5979 (MLSB resistant stain bearing an erm (B) gene)
[6] = test system: Streptococcus pneumoniae; experiment: In vitro antibacterial activity against Streptococcus pneumoniae ATCC 6303 (an erythromycin-susceptible strain)

Row | SMILES | MIC [1] | MIC [2] | MIC [3] | MIC [4] | MIC [5] | MIC [6]
1 | CC[C@H]1OC(=O)[C@H](C)C(=O)[C@H](C)[C@@H](O[C@@H]2O[C@H](C)C[C@H](N(C)C)[C@H]2O)[C@@](C)(OC)C[C@@H](C)/C(=N\OCCNCCCOCCCNCc2cc(Cl)cc(Cl)c2)[C@H](C)[C@@H](O)[C@]1(C)O | 8 µg/mL (≈ 8.7 µM) | > 128 µg/mL | 1 µg/mL (≈ 1.09 µM) | 0.015 µg/mL (≈ 0.0163 µM) | 4 µg/mL (≈ 4.35 µM) | ≤ 0.008 µg/mL
2 | CC[C@H]1OC(=O)[C@H](C)C(=O)[C@H](C)[C@@H](O[C@@H]2O[C@H](C)C[C@H](N(C)C)[C@H]2O)[C@@](C)(OC)C[C@@H](C)/C(=N\OCCNCCCOCCCNCc2ccccc2)[C@H](C)[C@@H](O)[C@]1(C)O | 128 µg/mL (≈ 150 µM) | ≥ 128 µg/mL | 16 µg/mL (≈ 18.8 µM) | 0.25 µg/mL (≈ 0.294 µM) | 1 µg/mL (≈ 1.17 µM) | 0.12 µg/mL (≈ 0.141 µM)
3 | CC[C@H]1OC(=O)[C@H](C)[C@@H](OC(=O)NCCCOCCCNC(=O)Cc2ccc(OC)cc2)[C@H](C)[C@@H](O[C@@H]2O[C@H](C)C[C@H](N(C)C)[C@H]2O)[C@@](C)(OC)C[C@@H](C)C(=O)[C@H](C)[C@H]2NC(=O)O[C@@]21C | 16 µg/mL (≈ 17.4 µM) | > 128 µg/mL | 8 µg/mL (≈ 8.68 µM) | 0.5 µg/mL (≈ 0.543 µM) | > 128 µg/mL | 0.5 µg/mL (≈ 0.543 µM)
4 | CC[C@H]1OC(=O)[C@H](C)C(=O)[C@H](C)[C@@H](O[C@@H]2O[C@H](C)C[C@H](N(C)C)[C@H]2O)[C@@](C)(OC)C[C@@H](C)/C(=N\OCCNCCCOCCOCCCNc2ccc(Oc3ccccc3)cc2)[C@H](C)[C@@H](O)[C@]1(C)O | 64 µg/mL (≈ 65.8 µM) | 128 µg/mL (≈ 132 µM) | 2 µg/mL (≈ 2.05 µM) | 1 µg/mL (≈ 1.03 µM) | 2 µg/mL (≈ 2.05 µM) | 0.12 µg/mL (≈ 0.123 µM)
5 | CC[C@H]1OC(=O)[C@H](C)C(=O)[C@H](C)[C@@H](O[C@@H]2O[C@H](C)C[C@H](N(C)C)[C@H]2O)[C@@](C)(OC)C[C@@H](C)/C(=N\OCCNCCCOCCOCCOCCCNc2ccc(Oc3ccccc3)cc2)[C@H](C)[C@@H](O)[C@]1(C)O | 32 µg/mL (≈ 31.5 µM) | 128 µg/mL (≈ 126 µM) | 2 µg/mL (≈ 1.97 µM) | 1 µg/mL (≈ 0.983 µM) | 2 µg/mL (≈ 1.97 µM) | 0.25 µg/mL (≈ 0.246 µM)
6 | CC[C@H]1OC(=O)[C@H](C)C(=O)[C@H](C)[C@@H](O[C@@H]2O[C@H](C)C[C@H](N(C)C)[C@H]2O)[C@@](C)(OC)C[C@@H](C)/C(=N\OCCNCCCCNCc2ccc(Oc3ccccc3)cc2)[C@H](C)[C@@H](O)[C@]1(C)O | 16 µg/mL (≈ 17.8 µM) | 32 µg/mL (≈ 35.6 µM) | 16 µg/mL (≈ 17.8 µM) | 0.25 µg/mL (≈ 0.278 µM) | 0.5 µg/mL (≈ 0.556 µM) | 0.015 µg/mL (≈ 0.0167 µM)
7 | C=CC(C)C(=O)NCCNC(=O)O[C@H]1[C@H](C)[C@@H](O[C@@H]2O[C@H](C)C[C@H](N(C)C)[C@H]2O)[C@@](C)(OC)C[C@@H](C)C(=O)[C@H](C)[C@H]2NC(=O)O[C@]2(C)[C@@H](CC)OC(=O)[C@@H]1C (stereo not given in full) | 128 µg/mL (≈ 163 µM) | > 128 µg/mL | 64 µg/mL (≈ 81.7 µM) |  | > 128 µg/mL | 0.25 µg/mL (≈ 0.319 µM)
8 | CC[C@H]1OC(=O)[C@H](C)C(=O)[C@H](C)[C@@H](O[C@@H]2O[C@H](C)C[C@H](N(C)C)[C@H]2O)[C@@](C)(OC)C[C@@H](C)/C(=N\OCCNCCCCCCNCc2ccc(OC)cc2)[C@H](C)[C@@H](O)[C@]1(C)O | 4 µg/mL (≈ 4.62 µM) | > 128 µg/mL | 1 µg/mL (≈ 1.16 µM) | 0.12 µg/mL (≈ 0.139 µM) | 2 µg/mL (≈ 2.31 µM) | ≤ 0.008 µg/mL
9 | CC[C@H]1OC(=O)[C@H](C)C(=O)[C@H](C)[C@@H](O[C@@H]2O[C@H](C)C[C@H](N(C)C)[C@H]2O)[C@@](C)(OC)C[C@@H](C)/C(=N\OCCNCCCNCc2ccc(Oc3ccccc3)cc2)[C@H](C)[C@@H](O)[C@]1(C)O | 13 µg/mL (≈ 14.7 µM) | 64 µg/mL (≈ 72.3 µM) | 32 µg/mL (≈ 36.2 µM) | 1 µg/mL (≈ 1.13 µM) | 32 µg/mL (≈ 36.2 µM) | 0.12 µg/mL (≈ 0.136 µM)
10 | CC[C@H]1OC(=O)[C@H](C)C(=O)[C@H](C)[C@@H](O[C@@H]2O[C@H](C)C[C@H](N(C)C)[C@H]2O)[C@@](C)(OC)C[C@@H](C)/C(=N\OCCNCCCCCCNCc2cccc(Oc3ccccc3)c2)[C@H](C)[C@@H](O)[C@]1(C)O | 4 µg/mL (≈ 4.31 µM) | 64 µg/mL (≈ 69 µM) | 2 µg/mL (≈ 2.16 µM) | 0.5 µg/mL (≈ 0.539 µM) | 0.12 µg/mL (≈ 0.129 µM) | ≤ 0.008 µg/mL
11 | CC[C@H]1OC(=O)[C@H](C)C(=O)[C@H](C)[C@@H](O[C@@H]2O[C@H](C)C[C@H](N(C)C)[C@H]2O)[C@@](C)(OC)C[C@@H](C)C(=O)[C@H](C)[C@@H](O)[C@]1(C)O | 64 µg/mL (≈ 109 µM) | > 128 µg/mL | 0.5 µg/mL (≈ 0.851 µM) | 0.12 µg/mL (≈ 0.204 µM) | > 128 µg/mL | 0.06 µg/mL (≈ 0.102 µM)
12 | CC[C@H]1OC(=O)[C@H](C)C(=O)[C@H](C)[C@@H](O[C@@H]2O[C@H](C)C[C@H](N(C)C)[C@H]2O)[C@@](C)(OC)C[C@@H](C)/C(=N\OCCNCCCOCCCNCc2ccc(Cl)c(Cl)c2)[C@H](C)[C@@H](O)[C@]1(C)O | 16 µg/mL (≈ 17.4 µM) | > 128 µg/mL | 2 µg/mL (≈ 2.17 µM) | 0.5 µg/mL (≈ 0.543 µM) | 0.25 µg/mL (≈ 0.272 µM) | 0.06 µg/mL (≈ 0.0652 µM)
13 | CC[C@H]1OC(=O)[C@H](C)C(=O)[C@H](C)[C@@H](O[C@@H]2O[C@H](C)C[C@H](N(C)C)[C@H]2O)[C@@](C)(OC)C[C@@H](C)/C(=N\OCCNCCCOCCCNCc2cnc3ccccc3c2)[C@H](C)[C@@H](O)[C@]1(C)O | 64 µg/mL (≈ 70.9 µM) | > 128 µg/mL | 0.5 µg/mL (≈ 0.554 µM) | 0.5 µg/mL (≈ 0.554 µM) | 0.25 µg/mL (≈ 0.277 µM) | 0.06 µg/mL (≈ 0.0665 µM)
14 | CC[C@H]1OC(=O)[C@H](C)C(=O)[C@H](C)[C@@H](O[C@@H]2O[C@H](C)C[C@H](N(C)C)[C@H]2O)[C@@](C)(OC)C[C@@H](C)/C(=N\OCCNCCCOCCCNCc2cn(C)c3ccc(F)cc23)[C@H](C)[C@@H](O)[C@]1(C)O | 8 µg/mL (≈ 8.68 µM) | 64 µg/mL (≈ 69.4 µM) | 1 µg/mL (≈ 1.08 µM) | 0.06 µg/mL (≈ 0.0651 µM) | 4 µg/mL (≈ 4.34 µM) | ≤ 0.008 µg/mL
15 | CC[C@H]1OC(=O)[C@H](C)C(=O)[C@H](C)[C@@H](O[C@@H]2O[C@H](C)C[C@H](N(C)C)[C@H]2O)[C@@](C)(OC)C[C@@H](C)/C(=N\OCCNCCCOCCCCOCCCNCc2ccc3ccccc3c2)[C@H](C)[C@@H](O)[C@]1(C)O | 32 µg/mL (≈ 32.9 µM) | > 128 µg/mL | 32 µg/mL (≈ 32.9 µM) | 1 µg/mL (≈ 1.03 µM) | 1 µg/mL (≈ 1.03 µM) | 0.12 µg/mL (≈ 0.123 µM)
16 | CC[C@H]1OC(=O)[C@H](C)C(=O)[C@H](C)[C@@H](O[C@@H]2O[C@H](C)C[C@H](N(C)C)[C@H]2O)[C@@](C)(OC)C[C@@H](C)/C(=N\OCCNCC2CCC(CNCc3ccc(Oc4ccccc4)cc3)CC2)[C@H](C)[C@@H](O)[C@]1(C)O (stereo not given in full) | 8 µg/mL (≈ 8.39 µM) | 32 µg/mL (≈ 33.6 µM) | 4 µg/mL (≈ 4.2 µM) | 0.12 µg/mL (≈ 0.126 µM) | 0.06 µg/mL (≈ 0.0629 µM) | 0.06 µg/mL (≈ 0.0629 µM)
17 | CC[C@H]1OC(=O)[C@H](C)C(=O)[C@H](C)[C@@H](O[C@@H]2O[C@H](C)C[C@H](N(C)C)[C@H]2O)[C@@](C)(OC)C[C@@H](C)/C(=N\OCCNCCCOCCCNCc2ccc(Oc3ccccc3)cc2)[C@H](C)[C@@H](O)[C@]1(C)O | 2 µg/mL (≈ 2.12 µM) | 64 µg/mL (≈ 67.9 µM) | 2 µg/mL (≈ 2.12 µM) | ≤ 0.008 µg/mL | 0.06 µg/mL (≈ 0.0636 µM) | ≤ 0.008 µg/mL
18 | CC[C@H]1OC(=O)[C@H](C)C(=O)[C@H](C)[C@@H](O[C@@H]2O[C@H](C)C[C@H](N(C)C)[C@H]2O)[C@@](C)(OC)C[C@@H](C)/C(=N\OCCNCC2CCC(CNCc3cccc(Oc4ccccc4)c3)CC2)[C@H](C)[C@@H](O)[C@]1(C)O (stereo not given in full) | 8 µg/mL (≈ 8.39 µM) | 64 µg/mL (≈ 67.1 µM) | 4 µg/mL (≈ 4.2 µM) | 0.12 µg/mL (≈ 0.126 µM) | 2 µg/mL (≈ 2.1 µM) | ≤ 0.008 µg/mL
19 | CC[C@H]1OC(=O)[C@H](C)C(=O)[C@H](C)[C@@H](O[C@@H]2O[C@H](C)C[C@H](N(C)C)[C@H]2O)[C@](C)(OCC=Cc2cnc3ccccc3c2)C[C@@H](C)C(=O)[C@H](C)[C@H]2NC(=O)O[C@@]21C [CETHROMYCIN] | 0.5 µg/mL (≈ 0.653 µM) | > 128 µg/mL | 0.12 µg/mL (≈ 0.157 µM) | ≤ 0.008 µg/mL | ≤ 0.008 µg/mL | ≤ 0.008 µg/mL
20 | CC[C@H]1OC(=O)[C@H](C)[C@@H](O[C@H]2C[C@@](C)(OC)[C@@H](O)[C@H](C)O2)[C@H](C)[C@@H](O[C@@H]2O[C@H](C)C[C@H](N(C)C)[C@H]2O)[C@](C)(O)C[C@@H](C)C(=O)[C@H](C)[C@@H](O)[C@]1(C)O [ERYTHROMYCIN] | 2 µg/mL (≈ 2.73 µM) | > 128 µg/mL | 0.25 µg/mL (≈ 0.341 µM) | 4 µg/mL (≈ 5.45 µM) | > 128 µg/mL | 0.03 µg/mL (≈ 0.0409 µM)
21 | CC[C@H]1OC(=O)[C@H](C)C(=O)[C@H](C)[C@@H](O[C@@H]2O[C@H](C)C[C@H](N(C)C)[C@H]2O)[C@](C)(OC)C[C@@H](C)C(=O)[C@H](C)[C@H]2N(CCCCn3cnc(-c4cccnc4)c3)C(=O)O[C@]12C [TELITHROMYCIN] | 2 µg/mL (≈ 2.46 µM) | > 128 µg/mL | 0.06 µg/mL (≈ 0.0739 µM) | 0.25 µg/mL (≈ 0.308 µM) | 0.06 µg/mL (≈ 0.0739 µM) | ≤ 0.008 µg/mL
